Read-outs that look alike come from different tables or passages of the source. No end group written: not given here.
Tests used:
K12 E. coli = type: cell-based
Description: The antimicrobial activities of the peptides and their acetylated derivatives may be assessed using K-12 E. coli and assays based on an existing protocol used to study derivatives of hBD-3. The bacteria may be grown to mid-log phase in Luria Bertani (LB) broth. Aliquots of the culture may then be diluted (to a cell density of about 10^6 CFU/ml) into 10 mM sodium phosphate at a pH of about 7.5. Each of the aliquots may contain varied concentrations of peptide or acetylated peptide. The diluted bacterial cultures may then be incubated for about 2 hours at a temperature of about 37° C. After the proscribed time, serial dilutions of the assay cultures may be plated onto LB agar plates, and then allowed to incubate overnight at a temperature of about 37° C. After incubating, colonies may be counted. Dose-response curves may be prepared to calculate EC50's.
The antibacterial activities of the free and acetylated peptides may be determined using K12 E. coli and a known assay protocol. Bacteria may be incubated in Luria Bertani broth at 37° C. until reaching an OD600 of ˜0.8-˜1.1. Cell density may be monitored using optical density at 600 nm. Cells were then diluted to a concentration of 10^6 CFU/ml in ˜10 mM sodium phosphate (pH ˜7.5), containing varied concentrations of peptide or acetylated peptide. Peptide concentration used in the assays may range from 0 μg/ml to ˜100 μg/ml with intermediate concentrations varied for each peptide in order to maximize the number of data points in or near the transition region.
Assay cultures may be incubated at 37° C. for about two hours. Afterwards, serial dilutions of each assay culture may be prepared and then plated in triplicate onto Luria Bertani broth plates. The plates may be incubated at 37° C. overnight (˜16 h). Colonies may be counted the following morning.
Bacterial survival at each peptide concentration may be calculated according to the ratio of the number of colonies on the plates corresponding to the peptide concentration and the average number of colonies observed for assay cultures lacking peptide. The peptide concentration required to kill ˜50% of tile viable E. coli in the assay cultures (EC50) may be determined by plotting percent survival as a function of the log of peptide concentration (log μg/ml) and fitting the data, using GraphPad Prism (GraphPad Software, Inc., San Diego, Calif.), to Equation (1), which describes a sigmoidal dose-response.
In Equation (1), S is percent survival, ST and SB represent the upper and lower survival boundaries, X is the log of the peptide concentration, and H is the Hill slope of the transition region.
In fitting the data for all peptides and acetylated peptides (except acetylated Pep-1 and acetylated Pep-3), ST and SB may be restricted to values≦100% and ≧0% respectively. For acetylated Pep-1 and acetylated Pep-3, the absence of data points defining the lower boundary necessitated that SB be set to 0% in order to fit the data to Equation (1) and provide an estimated EC50 for these peptides.

horse erythrocytes = type: cell-based
Description: Hemolytic activity may be assayed by, for example, incubating horse erythrocytes (e.g., Hemasource Inc. of Eugene, Oreg.). Varied peptide concentrations in phosphate buffered saline (e.g., Cellgro, produced by Mediatech, Inc. of Manassas, Va.) may be used for the incubation process. Hemolysis may be quantified by pelleting cells after incubation using centrifugation, and then measuring the absorbance of the supernatant at about 540 nm.
Hemolytic activities of the free and acetylated peptides may be determined using horse erythrocytes, in an assay adapted to a microtitre plate format. Cells may be prepared by centrifuging ˜1 ml of horse erythrocytes at 1620×g, and then resuspending the pelleted cells in ˜1 ml of 1× Dulbecco's phosphate-buffered saline (Dulbecco's PBS, Mediatech, Manassas, Va.). The cells may then be pelleted again. The process may be repeated (e.g., three more times). Following the final wash, the cells may be resuspended in ˜0.750 ml of PBS. Approximately two hundred microliters of washed erythrocyte suspension may then be diluted into ˜9800 μl of PBS to afford about 2% suspension. Aliquots of sterile water, peptide, and Dulbecco's PBS may then be combined in the wells of a 96 well microtitre plate so as to provide a gradient of peptide concentrations (0, ˜0.1, ˜1, ˜10, ˜100, and ˜1,000 μg/ml), to which the ˜2% erythrocyte may be added. […] An aliquot of supernatant (˜150 μl) from each well may then be transferred to a fresh microtitre plate, and the absorbance at ˜540 nm (heme) may be obtained for each solution. The percent hemolysis may be calculated based on the ratio of the absorption of supernatants from wells containing peptide and the absorption of supernatants from wells containing no peptide. In both cases, the recorded absorption may be adjusted for the background absorption of the plates.
Results of these assays appear in FIG. 21. […] Absorbance at 540 nm was used to monitor the release of hemoglobin by horse erythrocytes that have been incubated with varied concentrations of free peptide or acetylated peptide.

[1] = acetylated peptide, K12 E. coli, 10 mM sodium phosphate pH ~7.5, 2 h 37° C., 90% confidence range in parentheses, ‡ estimated values

| Substance | antimicrobial potency as percent of free Pep-1 (K12 E. coli; K12 E. coli, from EC50 values) [%] | Antimicrobial Activity (EC50), Free (K12 E. coli; K12, 2 h) | hemolytic activity (in words) (horse erythrocytes) | further results |
| --- | --- | --- | --- | --- |
| Ac-RGRK(Ac)SSRRK(Ac)K(Ac)-NH2 [acetylated Pep-3] |  |  |  | Antimicrobial Activity (EC50), Acetylated (K12 E. coli; [1]): ~70 µg/mL |
| Ac-RGRK(Ac)SSRRK(Ac)K(Ac)-OH [acetylated Pep-1] | ~5 |  |  | LC90, Acetylated Peptide (E. coli BL21(DE3)): 94.40 mg/L; decrease in potency relative to free Pep-1 (K12 E. coli; K12 E. coli, from EC50 values): sixteen |
| Ac-RGRRSSRRK(Ac)K(Ac)-NH2 [acetylated Pep-4] | ~50 |  |  | LC90, Acetylated Peptide (E. coli BL21(DE3)): 1.49 mg/L; Antimicrobial Activity (EC50), Acetylated (K12 E. coli; K12, 2 h): 4.9 (4.2-5.8) μg/ml |
| Ac-RGRRSSRRK(Ac)K(Ac)-OH [acetylated Pep-2] | ~25 |  |  | Antimicrobial Activity (EC50), Acetylated (K12 E. coli; K12, 2 h): ~8.1 µg/mL; Antimicrobial Activity (EC50), Acetylated (K12 E. coli; [1]): 8.1 (6.5-9.9) μg/ml |
| RGRKSSRRKK [Pep-1, RGRKSSRRKK (SEQ ID NO:2)] |  | 2.4 (2.2-2.7) μg/ml | some low-level hemolytic activity | LC90, Free Peptide (E. coli BL21(DE3)): 2.23 mg/L |
| RGRKSSRRKK-NH2 [Pep-3, RGRKSSRRKK-NH2 (SEQ ID NO:5)] |  | 1.2 (1.1-1.2) μg/ml |  |  |
| RGRRSSRRKK [Pep-2, RGRRSSRRKK (SEQ ID NO:3)] |  | 1.2 (1.1-1.3) μg/ml | some low-level hemolytic activity |  |
| RGRRSSRRKK-NH2 [Pep-4, RGRRSSRRKK-NH2 (SEQ ID NO:6)] |  |  | some low-level hemolytic activity | LC90, Free Peptide (E. coli BL21(DE3)): 0.15 mg/L |

Source: patent publication US9849189B2, “Targeted delivery of antimicrobial agents” (George Mason Research Foundation, Inc., priority 2008, dated 2017)
